Test results as given in PubChem BioAssay (NCI).
Values joined by “and” are separate entries in the source; they are usually repeats but may differ in a detail not shown here. Equal values may be shown once.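 Grown in 96-well plates, cells were treated for 48 hours with each compound at five concentrations. Insufficient inhibition: endpoint recorded as highest concentration tested. GI50 is the concentration that inhibits growth by half. The concentration for full growth arrest is given as TGI.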

Tests used:
Assay in all cases: growth of human tumour cells (NCI), 48 h
[1] = tested on: K-562 leukemia
[2] = tested on: SNB-78 CNS
[3] = tested on: ACHN renal
[4] = tested on: UO-31 renal
[5] = tested on: M19-MEL melanoma
[6] = tested on: UACC-62 melanoma
[7] = tested on: M14 melanoma
[8] = tested on: NCI-H460 lung
[9] = tested on: XF 498 CNS
[10] = tested on: CCRF-CEM leukemia
[11] = tested on: SR leukemia
[12] = tested on: HS 578T breast

SMILES	TGI [1]	TGI [2]	TGI [3]	TGI [4]	TGI [5]	TGI [6]	TGI [7]	TGI [8]	TGI [9]	TGI [10]	TGI [11]	GI50 [4]	GI50 [10]	TGI [12]
COc1cc2c(c(OC)c1OC)-c1ccc(SC)c(=O)cc1[C@@H](NCc1ccc([N+](=O)[O-])cc1)CC2	37.5 µM	> 100 µM	> 100 µM	> 100 µM	> 100 µM	51.2 µM								
CCOC(=O)C1=C(O)c2ccc(C)cc2C(=O)C1=O	> 100 µM	> 100 µM	> 100 µM	> 100 µM	32.3 µM	> 100 µM	> 100 µM	> 100 µM	> 100 µM	> 100 µM	> 100 µM			
CSc1cnc2ccccc2c1Sc1c[nH]c2ccccc2c1=O	> 58.1 µM	> 100 µM	52.5 µM	45.1 µM	34.6 µM	25.1 µM	27.2 µM	22.8 µM		> 87.3 µM	> 52 µM			
CCN(CC)CC1CCCCN1CC(=O)N1CC(C)C(=O)Nc2ccccc21 (stereo not given)	> 100 µM		> 100 µM	> 100 µM	> 100 µM	> 100 µM	> 100 µM	> 100 µM		> 100 µM	> 100 µM			
[N-]=[N+]=NCC(O)Cn1cnc2c(NC(=O)c3ccccc3)ncnc21 (stereo not given)	> 100 µM	> 100 µM	> 100 µM	> 100 µM	> 100 µM	> 100 µM	> 100 µM	> 100 µM	> 100 µM	> 100 µM				
N/C(=N\N=C\c1ncccc1O)NO	> 60.7 µM	> 100 µM		> 86.2 µM	> 78.6 µM	43 µM		> 100 µM	69.2 µM	> 47.6 µM				
C=C1C(C)C2C(Cc3ccccc3)NC(=O)C23OC(=O)/C=C\CC(=O)CCC(C)C/C=C/C3C1O (stereo not given)	5.79 µM	2.08 µM		2.72 µM	12.5 µM	11.2 µM		21.7 µM	1.07 µM			0.913 µM	0.135 µM and 0.216 µM	
CCOC(=O)CCC(C(=O)OCC)n1nnc2cc(Nc3c(C)[n+]([O-])c4cc(F)c(OCC)cc4[n+]3[O-])ccc21 (stereo not given)	> 100 µM		> 100 µM	> 100 µM		> 100 µM	> 100 µM	> 100 µM		> 100 µM	> 100 µM			> 100 µM
Cc1c2ccncc2c(C)c2c1[nH]c1ccc(OCCN(C)C)cc12	5.21 µM	3.2 µM		1.75 µM	2.17 µM	2.35 µM		0.0921 µM	2.19 µM	1.3 µM				
CC(C)=CCC[C@@H](C)C1=C(O)C(Nc2ccccc2I)=C(C)C(=O)C1=O	> 66.8 µM		44 µM	35.7 µM		31.3 µM	> 58.9 µM	> 75 µM		> 20.9 µM	21.4 µM			47.4 µM
CC1(C)C=C(/C=N/Nc2ccccc2)C(C#N)=C(O)C1(C#N)C#N	> 100 µM		> 100 µM	> 100 µM		> 100 µM	> 100 µM	> 100 µM		> 100 µM	> 100 µM			> 100 µM
O=C(Nc1nn[nH]n1)c1nc(-c2ccccc2)cc(=O)[nH]1	> 100 µM	> 100 µM	> 100 µM	> 100 µM	> 100 µM	> 100 µM	> 100 µM	> 100 µM	> 100 µM	> 100 µM	> 100 µM			> 100 µM
CCOC(=O)Nc1ccc(S(=O)(=O)Nn2cnnc2)cc1	77.9 µM		> 100 µM	> 100 µM		> 100 µM	> 100 µM	> 100 µM		> 100 µM	> 100 µM			> 100 µM
CCN(CC)C(=O)CCN1CC1	> 10 µM		> 10 µM	> 10 µM		> 10 µM	> 10 µM	> 10 µM		> 10 µM	> 10 µM			> 10 µM
O=c1c2ccccc2nc2ccc3c(Cl)[nH][nH]c3c12	> 100 µM	> 100 µM	> 100 µM	> 92.2 µM	> 100 µM	> 77.7 µM	> 100 µM	> 100 µM		> 100 µM	> 100 µM			
COC(NC(=O)Nc1ccccc1C)(C(F)(F)F)C(F)(F)F	> 100 µM		> 100 µM	> 100 µM		> 100 µM	> 100 µM	> 100 µM		> 100 µM	> 100 µM			> 100 µM
NC(=S)NC/C=C/Cl	> 100 µM		> 100 µM	> 100 µM		> 100 µM	> 100 µM	> 100 µM		> 100 µM	> 100 µM			> 100 µM
COc1ccc(Oc2ccccc2N)cc1	> 100 µM	> 100 µM	> 100 µM	> 100 µM	> 100 µM	> 100 µM	> 100 µM	> 100 µM		> 100 µM	> 100 µM			
O=C1NC(Cc2ccc(O)cc2)C(=O)NC1Cc1ccc(O)cc1 (stereo not given)	> 100 µM		> 100 µM	> 100 µM		> 100 µM	> 100 µM	> 100 µM		> 100 µM	> 100 µM			> 100 µM
COC1=CC(=O)N(C)C(O)C1(C#N)OC1OC(CO)C(O)C(O)C1O (stereo not given)	> 10 µM		> 100 µM	> 100 µM		> 100 µM	> 100 µM	> 100 µM		> 10 µM	> 100 µM			> 100 µM
C#CCOC(=O)c1ccc(OC(C)=O)cc1	> 100 µM		> 100 µM	> 100 µM		> 100 µM	> 100 µM	> 100 µM		> 100 µM	> 100 µM			> 100 µM
CCOC1=C(c2ccccc2)N2CCCCC2O1 (stereo not given)	> 47.5 µM		> 100 µM	> 79.8 µM		10 µM	12.1 µM	15 µM		> 72.4 µM	> 31.6 µM			33.1 µM
NCCSCCC(=O)O	> 100 µM		> 56.1 µM	> 100 µM		> 70.9 µM	> 100 µM	> 37.9 µM		> 100 µM	> 83.9 µM			> 100 µM
CC(C)Oc1cccc(N2C(Nc3ccccc3)=Nc3ccncc3S2(=O)=O)c1	> 100 µM		84.8 µM	> 100 µM		> 100 µM	> 100 µM	> 100 µM		62.4 µM	> 100 µM			> 100 µM
